Laboratory results from patent publication US7405309B2, “Pyranone derivatives useful for treating cancer” (Centre National de la Recherche Scientifique (CNRS), priority 2004, dated 2008).

Experiments:
[1] = test system: HCT-116 cells (colorectal carcinoma); assay: Study of cytotoxicity on HCT-116 cells; format: cell-based; settings: Homo sapiens, 96 hours of incubation, 37° C., read-out: concentration which induces the death of 50% of the cells (IC50)
Experimental: (§1) The biological activity of iodomethylene-dimethyl-dihydropyranone (I), as obtained according to Example 1, was studied in vitro on five different cell lines: • KB (epidermoid carcinoma of the nasopharynx) • HCT-116 (colorectal carcinoma) • K562 (myeloid leukemia) • K562-MDR1 (myeloid leukemia; resistance to doxorubicin) • MCF7-MDR1 (mammary adenocarcinoma; resistance to doxorubicin)
(§2) The cells selected for this study were incubated at 37° C. in the presence of iodomethylene-dimethyl-dihydropyranone (I) added to the culture medium at various concentrations. All the experiments carried out made it possible to determine the degree of toxicity of the test compound, its effect on the course of the cell cycle and its capacity to induce cell death by apoptosis.
(§3) The cytotoxicity of iodomethylene-dimethyl-dihydropyranone (I) was evaluated on KB and HCT-116 cells.

[2] = test system: KB cells (epidermoid carcinoma of the nasopharynx); assay: Study of cytotoxicity on KB cells; format: cell-based; settings: Homo sapiens, 96 hours of incubation, 37° C., read-out: concentration which induces the death of 50% of the cells (IC50)
Experimental: as §1, §2, §3

[3] = test system: K562 cells (myeloid leukemia); assay: Morphology of treated K562 cells; format: cell-based; settings: 10^−7 M, 24 hours
Experimental: as §1, §2
It should also be emphasized that from 24 hours onwards after the treatment with iodomethylene-dimethyl-dihydropyranone (I) at the dose of 10^−7 M, a change is observed in the morphology of the treated cells.

[4] = test system: K562 cells (myeloid leukemia); assay: Study of the cell cycle by flow cytometry, K562; format: cell-based; settings: significant after 24 hours at 10^−7 M
Experimental: as §1, §2
(§4) This effect is significant after 24 hours of exposure of the cells to iodomethylene-dimethyl-dihydropyranone (I) used at the concentration 10^−7 M (cf. FIG. 4: effect of (I) on the cell cycle of the leukemia cells K562).

[5] = test system: K562-MDR1 cells (myeloid leukemia; resistance to doxorubicin); assay: Study of the cell cycle by flow cytometry, K562-MDR1; format: cell-based; settings: significant after 24 hours at 10^−7 M
Experimental: as §1, §2, §4

[6] = test system: HCT116 cells (colorectal carcinoma); assay: Study of the cell cycle by flow cytometry, HCT116; format: cell-based, human; settings: significant after 24 hours at 10^−7 M
Experimental: as §1, §2, §4

[7] = test system: MCF7-MDR1 cells (mammary adenocarcinoma; resistance to doxorubicin); assay: Study of the cell cycle by flow cytometry, MCF7-MDR1; format: cell-based; settings: significant after 24 hours at 10^−7 M
Experimental: as §1, §2, §4

[8] = test system: K562-MDR1 cells (chemoresistant); assay: Study of apoptosis, flow cytometry with annexin V / propidium iodide double labeling; format: cell-based; settings: 24 hours, 10^−6 M and 10^−7 M
[9] = Maximum tolerated dose for a single intravenous injection; settings: Swiss Nu/nu (nude), mouse, in vivo, Nude mice, survival and weight monitored up to day 21
Experimental: The iodomethylene-dimethyl-dihydropyranone (I), as obtained according to Example 1, was injected by the intravenous route (iv) to 4-5 week old Nude mice (Swiss Nu/nu) at the following doses: 50 mg/kg, 66.6 mg/kg, 100 mg/kg, 150 mg/kg and 200 mg/kg.

in vivo = settings: Nude, mouse, iv
Experimental: Having determined the maximum tolerated dose for a single injection, the Nude mice were treated by the intravenous (iv) route with iodomethylene-dimethyl-dihydropyranone (I) injected at three different doses: 50, 70 and 90 mg/kg/injection. Each dose was administered 4 times at 3 day intervals (D0, D3, D6 and D9). The survival of the animals, their weight and clinical signs noted up to day 21 made it possible to establish the value of the maximum tolerated dose for four injections which is at less than 90 mg/kg. The 40, 60 and 80 mg/kg doses were therefore chosen for the evaluation of antitumor activity.

[10] = test system: HCT 116 tumor transplanted under the skin; assay: Antitumor activity in Nude mice carrying a transplanted HCT 116 tumor; format: in vivo
Experimental: This antitumor activity of the compounds of the invention was studied on transplanted tumors (such as HCT-116) in Nude mice (nu/nu mice). Nude mice are immunodeficient mice having no thymus.
The xenotransplantation of human tumor cells in Nude mice is a model commonly used for the evaluation of the antitumor activity of various molecules.
The iodomethylene-dimethyl-dihydropyranone (I) was injected 4 times at 3 day intervals (D0, D3, D6 and D9). Two groups of control animals were formed. The first group received no injection (control), whereas the animals of the second group received injections of the solution which served to solubilize the iodomethylene-dimethyl-dihydropyranone (I) (vehicle).
The volume of the tumors (mm^3) was measured with a caliper twice per week.

## CC1(C)OC(=O)C=C/C1=C\I [E-5-iodomethylene-6,6-dimethyl-5,6-dihydropyran-2-one]
[1]
  IC50: ~0.3 µM
[2]
  IC50: ~0.45 µM
[3]
  change in the morphology of the treated cells: the cells lose their round forms and become fusiform
[4]
  effect on the cell cycle: blocks cell division in all the lines at the G2/M phase
[5]
  effect on the cell cycle: blocks cell division in all the lines at the G2/M phase
[6]
  effect on the cell cycle: blocks cell division in all the lines at the G2/M phase
[7]
  effect on the cell cycle: blocks cell division in all the lines at the G2/M phase
[8]
  induction of apoptosis (positive annexin V/negative PI cells): high induction of apoptosis
[9]
  MTD at 21 day: 100 mg/kg
In vivo
  MTD at 21 day: < 90 mg/kg
[10]; 80 mg/kg/injection iv, D0, D3, D6, D9, from the 2nd injection
  tumor progression (tumor volume growth curves): significantly inhibits the tumor progression
[10]; 21 days after the start of the treatments, iv, 4 injections, dose not stated
  percentage T/C (median tumor volume treated/control ×100): 53.5%
